According to US20210393521A1, “PREPARATION OF A PHARMACEUTICAL COMPOSITION OF OLODATEROL, TIOTROPIUM BROMIDE AND BUDESONIDE” (priority 2020, published 2021):
≈ marks a conversion by molar mass, not a printed value.

Tests used:
[1] = Solubility test of BD in SBECD and Tween 80 solutions; type: physicochemical
Protocol: Solubility test to investigate the solubilizing effect of SBECD and Tween 80 as solubilizers on BD, and to investigate the solubility of BD at different concentrations.
Investigation of the solubility of BD under different concentrations of SBECD: Weigh 0.1 g, 0.3 g, 0.5 g, and 1.0 g of […] into a 10 ml EP tube, add 10 ml of pure water, and shake until the […] is completely dissolved, then add excess BD (about 500 mg/100 mL), and wrap the EP tube in tin foil to protect from light. After protecting from light, place the EP tube on a shaker, shake for 24 hours, and centrifuge to collect the supernatant.

[2] = background statement; cited from earlier work

Structure (SMILES) | BD Solubility ([1]; SBECD concentration 1%) [mg/100 ml] | BD Solubility ([1]; SBECD concentration 3%) [mg/100 ml] | BD Solubility ([1]; SBECD concentration 5%) [mg/100 ml] | BD Solubility ([1]; SBECD concentration 10%) [mg/100 ml] | BD Solubility ([1]; Tween 80 concentration 5 mg/100 ml) [mg/100 ml] | BD Solubility ([1]; Tween 80 concentration 10 mg/100 ml) [mg/100 ml] | BD Solubility ([1]; Tween 80 concentration 20 mg/100 ml) [mg/100 ml] | BD Solubility ([1]; Tween 80 concentration 1%) [mg/100 ml] | BD Solubility ([1]; Tween 80 concentration 3%) [mg/100 ml] | BD Solubility ([1]; Tween 80 concentration 5%) [mg/100 ml] | BD Solubility ([1]; Tween 80 concentration 10%) [mg/100 ml] | solubility at 24 h ([1]; Tween 80 solution in water, aqueous with cosolvent or surfactant or cyclodextrin, thermodynamic from solid, Tween 80 concentration 20 mg/100 ml) [µg/mL] | half-life [2] | maintains bronchiectatic activity for [2] [h]
CCCC1O[C@@H]2C[C@H]3[C@@H]4CCC5=CC(=O)C=C[C@]5(C)[C@H]4[C@@H](O)C[C@]3(C)[C@]2(C(=O)CO)O1 (stereo partly drawn) [BD, 11β,21-dihydroxy-16α,17α-(butylidenebis(oxy))pregna-1,4-diene-3,20-dione] | 16.91 | 40.28 | 61.91 | 81.3 | 0.224 | 0.256 | 0.292 | 16.54 | 38.88 | 64.84 | 118.79 | 2.92 (≈ 6.78 µM) | – | –
COc1ccc(CC(C)(C)NC[C@H](O)c2cc(O)cc3c2OCC(=O)N3)cc1 [Olodaterol, 6-hydroxy-8-[(1R)-1-hydroxy-2-{[1-(4-methoxyphenyl)-2-methylpropan-2-yl]amino}ethyl]-3,4-dihydro-2H-1,4-benzoxazin-3-one] | – | – | – | – | – | – | – | – | – | – | – | – | more than 12 h | 24
